Source: patent US20210255193A1, “LYSINE REACTIVE PROBES AND USES THEREOF” (The Scripps Research Institute, priority 2017, published 2021)

Key:
Test in all cases: competitive isoTOP-ABPP
Format in all cases: binding
ADK Adenosine kinase = biological target: T1, ADK Adenosine kinase (Homo sapiens, UniProt P55263); design: key to isoTOP-ABPP reactivity ratio at lysine P55263_K88: R = MS1 peak area ratio, DMSO (heavy) / compound-treated (light); settings: for isoTOP-ABPP reactivity ratio at lysine P55263_K88 / isoTOP-ABPP ratio (R) at liganded lysine P55263_K88: 50 uM, in vitro; for isoTOP-ABPP reactivity ratio at lysine P55263_K88: 231 sol; for isoTOP-ABPP ratio (R) at liganded lysine P55263_K88: sol, 231; for isoTOP-ABPP ratio, lysine P55263_K88: 50 uM_231_sol_in vitro
T1 construct: isoTOP-ABPP experiments performed in cell lysates (in vitro); endogenous in cells; host or cells: soluble proteome of human cancer cell lines (MDA-MB-231, Ramos, Jurkat)
Procedure: (§1) In vitro covalent fragment treatment for isoTOP-ABPP. All compounds were made up as solutions in DMSO (100×) and were used at a final concentration of 50 μM for activated esters and 100 μM for guanidinylating agents. For each profiling sample, 0.5 ml of lysate was treated with 5 μl of the 100× compound stock solution or 5 μl of DMSO. Samples were treated with activated esters for
(§2) STP-alkyne labeling and click chemistry. For concentration-dependent reactivity measurements by isoTOP-ABPP, 0.5 ml proteome aliquots were treated at ambient temperature with 1 mM STP-alkyne 1 (5 μl of 100 mM stock in DMSO) and 0.1 mM STP alkyne 1 (5 μl of 10 mM stock in DMSO), respectively. For competitive isoTOP-ABPP, after in vitro fragment treatment (detailed above), the samples were labeled for 1 h at ambient temperature with 0.1 mM STP-alkyne 1 (5 μl of 10 mM stock in DMSO). Samples were conjugated by copper-mediated azide-alkyne cycloaddition (CuAAC) to either the light (1 mM STP-alkyne or fragment treated) or heavy (0.1 mM STP-alkyne or DMSO treated) TEV tags (10 μl of 5 mM stocks in DMSO, final concentration=100 μM) using tris(2-carboxyethyl)phosphine hydrochloride
(§3) R value calculation and processing. The ratios of light and heavy MS1 peaks for each unique peptide were quantified with a CIMAGE software using default parameters (3 MS1 acquisitions per peak and signal to noise threshold set to 2.5). For reactivity measurements by isoTOP-ABPP, the R value was calculated from the ratio of MS1 peak areas, comparing the 1 mM STP alkyne sample (light TEV tag) with the 0.1 mM STP alkyne sample (heavy TEV tag). For competitive isoTOP-ABPP, the R value was calculated from the ratio of MS1 peak areas, comparing the DMSO treated sample (heavy TEV tag) with the compound treated sample (light TEV tag). […] Ratios for unique peptide entries are calculated for each experiment; overlapping peptides with the same modified lysine (for example, different charge states, MudPIT chromatographic steps or tryptic termini) are grouped together and the median ratio is reported as the final ratio (R). The peptide ratios reported by CIMAGE were further filtered to ensure the removal or correction of low-quality ratios in each individual data set. The quality filters applied were the following: removal of half tryptic peptides; for ratios with high standard deviations from the median (90% of the median or above) the lowest ratio was taken instead of the median; removal of peptides with R=20 and only a single MS2 event triggered during the elution of the parent ion; manual annotation of all the peptides with ratios of 20, removing any peptides with low quality elution profiles that remained after the previous curation steps (only done for competitive isoTOP-ABPP).
(§4) Cross-data processing for fragment screening. For compound treated samples, biological replicates of the same condition were averaged, if the standard deviation was below 60% of the mean; otherwise, for lysines with at least one R value <4 for a particular compound, the lowest value of the ratio set was taken. For lysines, where all R values for a particular compound were ≥4, the average was reported. For peptides containing several possible modified lysines, the lysine with the highest number of quantification events was used for analysis and the remaining, redundant peptides were reported as alternative modification sites. Peptides included in the aggregate dataset (those used for further bioinformatics and statistical analyses) were required to have been quantified in 2 experiments for competitive isoTOP-ABPP. Lysines were categorized as liganded, if they had at least one ratio R≥4 (hit fragments). For liganded lysines with R=20 for all liganding events, lysines were required to have been quantified with R=20 in two separate experiments and were further required to have been quantified with R<20 in one additional experiment.

[1] = biological target: T2, SRP54 Signal recognition particle 54 kDa protein (Homo sapiens, UniProt P61011); design: key to isoTOP-ABPP reactivity ratio at lysine P61011_K81: R = MS1 peak area ratio, DMSO (heavy) / compound-treated (light); capped at 20; settings: for isoTOP-ABPP reactivity ratio at lysine P61011_K81 / isoTOP-ABPP ratio (R) at liganded lysine P61011_K81: 50 uM, in vitro; for isoTOP-ABPP reactivity ratio at lysine P61011_K81: 231 sol; for isoTOP-ABPP ratio (R) at liganded lysine P61011_K81: sol, 231; for isoTOP-ABPP ratio, lysine P61011_K81: 50 uM_231_sol_in vitro
T2 construct: isoTOP-ABPP experiments performed in cell lysates (in vitro); endogenous in cells; host or cells: soluble proteome of human cancer cell lines (MDA-MB-231, Ramos, Jurkat)
Procedure: as §1, §2, §3, §4

[2] = biological target: T3, TPMT Thiopurine S-methyltransferase (Homo sapiens, UniProt P51580); design: key to isoTOP-ABPP reactivity ratio at lysine P51580_K32: R = MS1 peak area ratio, DMSO (heavy) / compound-treated (light); settings: for isoTOP-ABPP reactivity ratio at lysine P51580_K32 / isoTOP-ABPP ratio (R) at liganded lysine P51580_K32: 50 uM, in vitro; for isoTOP-ABPP reactivity ratio at lysine P51580_K32: 231 sol; for isoTOP-ABPP ratio (R) at liganded lysine P51580_K32: sol, 231; for isoTOP-ABPP ratio, lysine P51580_K32: 50 uM_231_sol_in vitro
T3 construct: isoTOP-ABPP experiments performed in cell lysates (in vitro); endogenous in cells; host or cells: soluble proteome of human cancer cell lines (MDA-MB-231; Ramos and Jurkat also prepared)
T3 sequence (P51580 1-245): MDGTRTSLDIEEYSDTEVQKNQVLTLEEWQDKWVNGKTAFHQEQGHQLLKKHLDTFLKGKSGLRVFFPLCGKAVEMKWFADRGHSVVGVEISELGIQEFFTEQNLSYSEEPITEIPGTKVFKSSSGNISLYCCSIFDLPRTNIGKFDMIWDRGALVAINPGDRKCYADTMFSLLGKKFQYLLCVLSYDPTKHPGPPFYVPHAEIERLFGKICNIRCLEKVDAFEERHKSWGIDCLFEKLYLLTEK
Procedure: as §1, §2, §3, §4

[3] = biological target: T4, ISOC2 Isochorismatase domain-containing protein 2, mitochondrial (Homo sapiens, UniProt Q96AB3); design: key to isoTOP-ABPP reactivity ratio at lysine Q96AB3_K178: R = MS1 peak area ratio, DMSO (heavy) / compound-treated (light); capped at 20; settings: for isoTOP-ABPP reactivity ratio at lysine Q96AB3_K178 / isoTOP-ABPP ratio (R) at liganded lysine Q96AB3_K178: 50 uM, in vitro; for isoTOP-ABPP reactivity ratio at lysine Q96AB3_K178: 231 sol; for isoTOP-ABPP ratio (R) at liganded lysine Q96AB3_K178: sol, 231; for isoTOP-ABPP ratio, lysine Q96AB3_K178: 50 uM_231_sol_in vitro
T4 construct: isoTOP-ABPP experiments performed in cell lysates (in vitro); endogenous in cells; host or cells: soluble proteome of human cancer cell lines (MDA-MB-231; Ramos and Jurkat also prepared)
T4 sequence (Q96AB3 1-205): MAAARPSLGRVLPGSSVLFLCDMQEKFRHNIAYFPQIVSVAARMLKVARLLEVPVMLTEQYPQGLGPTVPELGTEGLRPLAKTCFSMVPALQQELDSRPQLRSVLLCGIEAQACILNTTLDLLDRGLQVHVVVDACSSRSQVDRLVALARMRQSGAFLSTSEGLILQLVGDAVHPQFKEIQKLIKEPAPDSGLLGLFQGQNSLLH
Procedure: as §1, §2, §3, §4

T2 sequence (P61011 whole entry): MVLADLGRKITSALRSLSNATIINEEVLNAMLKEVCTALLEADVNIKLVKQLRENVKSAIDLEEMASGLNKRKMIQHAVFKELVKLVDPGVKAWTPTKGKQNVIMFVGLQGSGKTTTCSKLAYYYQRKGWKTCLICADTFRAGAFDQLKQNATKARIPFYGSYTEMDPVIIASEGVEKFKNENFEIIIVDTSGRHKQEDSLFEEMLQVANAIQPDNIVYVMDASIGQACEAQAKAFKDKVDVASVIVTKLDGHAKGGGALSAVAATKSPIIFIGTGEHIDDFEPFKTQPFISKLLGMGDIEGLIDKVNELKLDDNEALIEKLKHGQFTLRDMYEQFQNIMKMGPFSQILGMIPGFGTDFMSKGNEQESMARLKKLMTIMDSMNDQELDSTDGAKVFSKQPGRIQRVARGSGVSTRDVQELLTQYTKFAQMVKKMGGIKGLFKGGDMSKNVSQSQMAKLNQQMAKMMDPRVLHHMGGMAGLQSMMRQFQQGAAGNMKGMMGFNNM
T1 sequence (P55263 whole entry): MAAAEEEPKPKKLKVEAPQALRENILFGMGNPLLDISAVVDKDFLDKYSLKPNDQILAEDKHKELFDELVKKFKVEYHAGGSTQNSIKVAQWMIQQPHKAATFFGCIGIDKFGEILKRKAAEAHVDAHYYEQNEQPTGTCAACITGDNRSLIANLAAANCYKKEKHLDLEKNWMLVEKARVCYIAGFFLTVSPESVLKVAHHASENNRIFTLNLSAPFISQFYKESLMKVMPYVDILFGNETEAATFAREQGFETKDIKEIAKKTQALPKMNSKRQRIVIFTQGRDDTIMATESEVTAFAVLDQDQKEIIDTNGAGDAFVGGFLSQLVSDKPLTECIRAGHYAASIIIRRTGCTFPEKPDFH

Compound	isoTOP-ABPP ratio (R) at liganded lysine P55263_K88 (ADK Adenosine kinase)	isoTOP-ABPP ratio (R) at liganded lysine P61011_K81 [1]	isoTOP-ABPP ratio (R) at liganded lysine P51580_K32 [2]	isoTOP-ABPP ratio (R) at liganded lysine Q96AB3_K178 [3]	isoTOP-ABPP ratio, lysine P55263_K88 (ADK Adenosine kinase)	isoTOP-ABPP ratio, lysine P61011_K81 [1]	isoTOP-ABPP ratio, lysine P51580_K32 [2]	isoTOP-ABPP ratio, lysine Q96AB3_K178 [3]	further results
Cn1cc(CC(=O)Oc2ccc([N+](=O)[O-])cc2[N+](=O)[O-])c2ccccc21 [fragment 32, 2,4-Dinitrophenyl 2-(1-methyl-1H-indol-3-yl)acetate]	–	–	–	–	–	–	–	–	isoTOP-ABPP reactivity ratio at lysine P55263_K88 (ADK Adenosine kinase): 1.4; isoTOP-ABPP reactivity ratio at lysine P61011_K81 [1]: 20.0; isoTOP-ABPP reactivity ratio at lysine P51580_K32 [2]: 2.5; isoTOP-ABPP reactivity ratio at lysine Q96AB3_K178 [3]: 1.1
COc1cc(CCC(=O)Oc2ccc([N+](=O)[O-])cc2[N+](=O)[O-])cc(OC)c1OC [fragment 33, 2,4-Dinitrophenyl 3-(3,4,5-trimethoxyphenyl)propanoate]	–	–	–	–	–	–	–	–	isoTOP-ABPP reactivity ratio at lysine P55263_K88 (ADK Adenosine kinase): 0.9; isoTOP-ABPP reactivity ratio at lysine P61011_K81 [1]: 1.3; isoTOP-ABPP reactivity ratio at lysine P51580_K32 [2]: 3.7; isoTOP-ABPP reactivity ratio at lysine Q96AB3_K178 [3]: 9.1
O=C(Oc1ccc([N+](=O)[O-])cc1[N+](=O)[O-])C1CCN(C(=O)OCc2ccccc2)CC1 [fragment 34, 1-Benzyl 4-(2,4-dinitrophenyl) piperidine-1,4-dicarboxylate]	20.0	0.8	1.6	1.1	–	–	–	–	–
O=C(CCc1coc2cc(F)ccc2c1=O)Oc1ccc([N+](=O)[O-])cc1[N+](=O)[O-] [fragment 36, 2,4-Dinitrophenyl 3-(7-fluoro-4-oxo-4H-chromen-3-yl)propanoate]	20.0	1.3	3.4	1.7	–	–	–	–	–
O=C(Oc1ccc([N+](=O)[O-])cc1[N+](=O)[O-])c1ccc(-c2ccccc2)cc1 [fragment 37, 2,4-Dinitrophenyl [1,1′-biphenyl]-4-carboxylate]	0.8	0.9	1.5	0.9	–	–	–	–	–
O=C(Oc1ccc([N+](=O)[O-])cc1[N+](=O)[O-])c1ccc(Oc2ccccc2)cc1 [fragment 39, 2,4-Dinitrophenyl 4-phenoxybenzoate]	0.9	0.9	1.0	0.9	–	–	–	–	–
CC(C)(C)OC(=O)NCCCC(=O)Oc1ccc([N+](=O)[O-])cc1[N+](=O)[O-] [fragment 41, 2,4-Dinitrophenyl 4-((tert-butoxycarbonyl)amino)butanoate]	1.5	1.0	1.5	1.9	–	–	–	–	–
O=C(Oc1ccc([N+](=O)[O-])cc1[N+](=O)[O-])C(c1ccccc1)(c1ccccc1)c1ccccc1 [fragment 42, 2,4-Dinitrophenyl 2,2,2-triphenylacetate]	1.0	0.9	0.9	1.0	–	–	–	–	–
CC(=O)Oc1ccc([N+](=O)[O-])cc1[N+](=O)[O-] [fragment 43, 2,4-Dinitrophenyl acetate]	0.9	20.0	1.5	1.1	–	–	–	–	–
N#Cc1ccc(C(=O)Oc2ccc([N+](=O)[O-])cc2[N+](=O)[O-])cc1 [fragment 44, 2,4-Dinitrophenyl 4-cyanobenzoate]	–	–	–	–	0.5	1.0	1.4	1.3	–
O=C(CCc1ccc2c(c1)OCO2)Oc1ccc([N+](=O)[O-])cc1[N+](=O)[O-] [fragment 45, 2,4-Dinitrophenyl 3-(benzo[d][1,3]dioxol-5-yl)propanoate]	–	–	–	–	1.3	1.0	2.3	1.8	–
O=C(ON1C(=O)CCC1=O)c1cc(C(F)(F)F)cc(C(F)(F)F)c1 [fragment 46, 3,5-Bis(trifluoromethyl)benzoic acid NHS ester]	–	–	–	–	0.8	0.9	20.0	1.5	–
O=C(Oc1c(F)c(F)c(C(F)(F)F)c(F)c1F)c1cc(C(F)(F)F)cc(C(F)(F)F)c1 [fragment 47, 2,3,5,6-Tetrafluoro-4-(trifluoromethyl)phenyl 3,5-bis(trifluoromethyl)benzoate]	–	–	–	–	0.8	0.9	9.5	1.2	–
O=C(Oc1c(F)c(F)cc(F)c1F)c1cc(C(F)(F)F)cc(C(F)(F)F)c1 [fragment 48, 2,3,5,6-Tetrafluorophenyl 3,5-bis(trifluoromethyl)benzoate]	–	–	–	–	0.9	1.1	4.4	0.9	–
NC(=O)c1cc(C(F)(F)F)cc(C(F)(F)F)c1 [fragment 51, reference compound]	–	–	–	–	0.8	0.7	0.8	0.9	–
